Source: ChEMBL document CHEMBL1201862, “PubChem BioAssay data set” (2004)
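Cultured in 96-well plates, cells were exposed to test compound for 48 hours across five concentrations. At the GI50, growth is halved.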 Activity calls are given as the source filed them. No stated cut-off is given here; in the data, active = GI50 up to about 1.1 µM and inactive = higher.

How the values were obtained:
Experiment in all cases: inhibition of tumour cell growth, NCI panel, 48 h
SK-MEL-5 = system: SK-MEL-5
A498 = system: A498
SK-OV-3 = system: SK-OV-3
NCI-H460 = system: NCI-H460
CCRF-CEM = system: CCRF-CEM
ACHN = system: ACHN
HCT-116 = system: HCT-116
HT-29 = system: HT-29
SF-268 = system: SF-268
SN12C = system: SN12C
RPMI-8226 = system: RPMI-8226
OVCAR-5 = system: OVCAR-5
UACC-257 = system: UACC-257
NCI-H226 = system: NCI-H226
UACC-62 = system: UACC-62
MDA-MB-435 = system: MDA-MB-435
PC-3 = system: PC-3
MCF7 = system: MCF7
Hs-578T = system: Hs-578T

| SMILES | GI50 (SK-MEL-5) | GI50 (A498) | GI50 (SK-OV-3) | GI50 (NCI-H460) | GI50 (CCRF-CEM) | GI50 (ACHN) | GI50 (HCT-116) | GI50 (HT-29) | GI50 (SF-268) | GI50 (SN12C) | GI50 (RPMI-8226) | GI50 (OVCAR-5) | GI50 (UACC-257) | GI50 (NCI-H226) | GI50 (UACC-62) | GI50 (MDA-MB-435) | GI50 (PC-3) | GI50 (MCF7) | GI50 (Hs-578T) |
| --- | --- | --- | --- | --- | --- | --- | --- | --- | --- | --- | --- | --- | --- | --- | --- | --- | --- | --- | --- |
| Oc1nnc(CNc2ccc(Cl)cc2Cl)c2ccccc12 | 19.7 µM (inactive) | 8.24 µM (inactive) | 18.9 µM (inactive) | 24.6 µM (inactive) | > 100 µM (inactive) | 22.8 µM (inactive) | 22.8 µM (inactive) | 31.8 µM (inactive) | 19.9 µM (inactive) | 34.3 µM (inactive) | 58.2 µM (inactive) | 24.4 µM (inactive) | 33.4 µM (inactive) | 36.1 µM (inactive) | 27.5 µM (inactive) | – | – | – | – |
| CNC(=O)NCCN1N=C(C)/C(=C\c2ccccc2)CC1=O | > 100 µM (inactive) | > 100 µM (inactive) | > 100 µM (inactive) | > 100 µM (inactive) | > 100 µM (inactive) | > 100 µM (inactive) | > 100 µM (inactive) | > 100 µM (inactive) | > 100 µM (inactive) | > 100 µM (inactive) | > 100 µM (inactive) | > 100 µM (inactive) | > 100 µM (inactive) | > 100 µM (inactive) | > 100 µM (inactive) | – | – | – | – |
| COc1ccc(C2=NN=C3C(c4ccccc4)=Nc4ccccc4N3C2)cc1 | 21.3 µM (inactive) | 40.1 µM (inactive) | 80.2 µM (inactive) | 22.1 µM (inactive) | 2.16 µM (inactive) | 14.1 µM (inactive) | 14.6 µM (inactive) | 20.1 µM (inactive) | 13.6 µM (inactive) | 27.8 µM (inactive) | 38.8 µM (inactive) | 54.2 µM (inactive) | 27.5 µM (inactive) | 41.6 µM (inactive) | 29.2 µM (inactive) | 27.2 µM (inactive) | 31.6 µM (inactive) | 21.7 µM (inactive) | – |
| CC(C)[C@@H](C)[C@@]1(C)C[C@@H]1[C@@H](C)[C@H]1CC[C@@H]([C@@H]2CC=C3C[C@@H](O)CC[C@]3(C)C2=O)[C@]1(C)CCO | 13.1 µM (inactive) | 15.3 µM (inactive) | – | 1.77 µM (inactive) | – | 12.5 µM (inactive) | 10.1 µM (inactive) | 2.58 µM (inactive) | 15.5 µM (inactive) | 12.9 µM (inactive) | 12.2 µM (inactive) | 11.6 µM (inactive) | 14.3 µM (inactive) | 12.5 µM (inactive) | 14.6 µM (inactive) | 11.9 µM (inactive) | 10.1 µM (inactive) | 10.9 µM (inactive) | 10.3 µM (inactive) |
| CCCCCCNc1n[nH]c(=O)c2c1nnn2Cc1ccccc1 | > 100 µM (inactive) | – | – | > 100 µM (inactive) | > 100 µM (inactive) | > 100 µM (inactive) | > 100 µM (inactive) | > 100 µM (inactive) | – | > 100 µM (inactive) | > 100 µM (inactive) | > 100 µM (inactive) | > 100 µM (inactive) | – | – | > 100 µM (inactive) | > 100 µM (inactive) | > 100 µM (inactive) | – |
| CC[C@]12C=CCN3CCC4(c5cc([C@@]6(C(=O)OC)CC7CN(CCc8c6[nH]c6ccccc86)C[C@@H]6CCC[C@H]76)c(OC)cc5N(C)C4[C@](O)(C(=O)OC)C1OC(C)=O)C32 (stereo partly specified) | 0.0324 µM (active) | 0.251 µM (active) | 0.135 µM (active) | 0.142 µM (active) | 0.122 µM (active) | 0.807 µM (active) | 0.108 µM (active) | 0.103 µM (active) | 0.127 µM (active) | 0.423 µM (active) | 0.141 µM (active) | 0.741 µM (active) | 0.167 µM (active) | 0.201 µM (active) | 0.0728 µM (active) | 0.00318 µM (active) | 0.0336 µM (active) | 0.0127 µM (active) | – |
